Laboratory results: patent US6599501B1, “Immunomodulators” (Steeno Research Group A/S, priority 1994, dated 2003)

How the values were obtained:
Assay type in all cases: cell-based
[1] = test system: spontaneous IL-8 production by human monocytes; experiment: Spontaneous IL-8 production by purified cultured human monocytes (IL-8 ELISA); conditions: any concentration of IT9302 between 0.1 and 1000 ng/ml; this and following examples
[2] = test system: IL-1β induced IL-8 production by human peripheral blood mononuclear cells (PBMC); experiment: IL-1β induced IL-8 production by human peripheral blood mononuclear cells (IL-8 ELISA); conditions: r-hIL-1β 1 ng/ml; 48 hours total incubation
Protocol: PBMC was purified from heparinized blood of normal human donors. Following gradient centrifugation with-Lymphoprep™ (Nycomed Pharma, Oslo, Norway), the mononuclear cells were diluted to 2×10^6 cells/ml in LPS-free RPMI 1640 medium (Gibco Cat.No. 6187-010) containing 1% sterile filtered heat-inactivated fetal calf serum and penicillin (10,000 IE/ml), streptomycin (10 mg/ml) and gentamycin (2.5 mg/ml). Cells were cultured in 24 wells Nunc Micro Plates (Nunc, Denmark) and in the presence of different concentration of IT9302 (0, 1 μg, 100 ng, 10 ng, 1 ng, 0.1 ng, 0.01 ng/ml) for 24 hours. Following 24 hours of incubation, another dose of IT9302 was added once more, and 1 hour later r-hIL-1β (1 ng/ml) was added to the cell cultures. Supernatants were collected after a total of 48 hours of incubation, and the concentration of the secreted IL-8 was measured by IL-8 ELISA by using an IL-8 ELISA Kit (Dainippon Pharmaceutical Co. Ltd, Osaka, Japan). Briefly, standards and cell supernatants were incubated for one hour and in duplicates at 20° C. on a micro-plate shaker. Then after washing, a second antibody was added for one hour, followed by one hour of incubation with peroxidase-labelled goat anti-rabbit IgG. […] Optical density (OD) was measured in an ELISA reader at 490 nm. IL-8 concentration was calculated by a calibration curve of absorbance of unknown vs concentrations of IL-8 standards. […]

[3] = test system: IRAP production by human monocytes; experiment: Production of interleukin-1 receptor antagonist protein (IRAP) by human monocytes (IRAP ELISA); conditions: monocytes stimulated 24 hours
Protocol: PBMC was purified as described above. PBMC was cultured in RMPI 1640, 10% sterile heat-inactivated fetal calf serum (including penicillin 10,000 IE/ml, streptomycin 10 mg/ml, gentamycin 2.5 mg/ml) and the cell concentration was 5×10^6 cells/ml. The monocytes were then purified by standard plastic adherence technique. Monocytes were then cultured in RPMI 1640 with 2% FCS (2.5×10^6 cells/ml) and with different dilutions of rhIL-10 or IT9302. The cells were stimulated for 24 hours and the supernatants were collected for IRAP determination. IRAP ELISA was carried out by using Human IL-1ra Quantikin Immunoassay Kit from R&D Systems Europe Ltd. (Cat.No. DRA 00, Abingdon, Oxon, UK).
The test was performed as described in “Determination of IRAP concentration”.

[4] = test system: IL-4 production by cultured normal human CD4+ T cells; experiment: IL-4 production by CD4+ T lymphocytes (ECL-Western blotting); conditions: 100 ng/ml, 3 days, cytosolic fractions
Protocol: CD4+ T lymphocytes were purified from heparinized normal human blood. Following Lymphoprep™ (Nycomed Pharma, Oslo, Norway) gradient centrifugation, the mononuclear cells were further sorted at 4° C. using Dynabeads (Dynal AS, Norway) coated with monoclonal anti-CD4 antibodies. The beads were detached by adding polyclonal anti-mouse antibody (Dynal AS, Norway). The purity of the positively selected cells were higher than 99% as judged by FACS analysis. […]
Cells or freeze-dried cell culture supernatants were used for IL-4 protein content determination. […] The blots were then incubated with a polyclonal goat anti-human IL-4 antibody (R&D Systems, UK) followed by a horseradish peroxidase-labelled secondary antibody (Cat.no. RPN 2106 ECL, Amersham, UK), and the immunostaining was detected by exposing a film (Kodak X-OMAT-S, USA) for 90 seconds.
Thus, CD4+ T cells, purified as described in “Methods for T cell chemotaxis”, and cultured as described in the section “Determination of IL-4 production by CD4+ T lymphocytes”, were stimulated for 3 days with IT9302 (10 ng/ml) or IL-10 (100 ng/ml). Cytosolic fractions were collected and analyzed for their IL-4 content using Western blotting (FIG. 11) and a goat anti-human IL-4 polyclonal antibody.

[5] = test system: class II MHC molecule expression on human monocytes; experiment: Class II MHC antigen expression on monocytes (rosetting with HLA class II Dynabeads)
Protocol: PBMC was purified as described above and monocytes isolated by plastic adherence technique. Monocytes were then cultured in RPMI 1640 with 2% FCS including penicillin 10,000 IE/ml, streptomycin 10 mg/ml, gentamycin 2.5 mg/ml at a cell concentration of 3×10^6/ml. Cells were stimulated for 40 hours in microwells (Nunc, Denmark) with 100 ng/ml rhIL-10, or IT9302 1 μg/ml, 100 ng/ml, 10 ng/ml. At the end of stimulation, the supernatants were removed and the cells were detached from the plastic by freezing at −20° C. for 20 minutes. The cells were collected in 1 ml of cold HBSS with 1% FCS and sorted at 20° C. by using 50 μl/ml Dynabeads M 450 coated with monoclonal antibody for HLA class II β chain (Cat. No. 210.03). After 20 minutes of incubation, the cells were washed 3 times with cold HBSS with 1% FCS and collected on a magnetic separation device. The cells were diluted in the above buffer and stained with methylene blue, and the resetting cells (cells carrying Dynabeads with HLA class II mAb) were counted.

H-AYMTMKIRN-OH [IT9302, NH2-Ala-Tyr-Met-Thr-Met-Lys-Ile-Arg-Asn-COOH]
effect on viability of cells [1]: did not in this or in the following examples affect viability

NH2-Ser-Pro-Gly-Gln-Gly-Thr-Gln-Ser-Glu-COOH (H-SPGQGTQSE-OH) [IT9301, nonapeptide from the N-terminal end of hIL-10, control for negative results]
inhibition of IL-1β induced production of IL-8 [2]: did not induce any inhibition at all

rhIL-10: Recombinant human interleukin 10 obtained from Pepro Tech Inc.
induction of IRAP production [3]: induction of IRAP | production of IL-4 by CD4+ T cells [4]: induce the production of IL-4 | inhibition of class II MHC expression ([5]; 40 hours stimulation): inhibits class II MHC expression | Number of rosetting monocytes ([5]; stimulation 100 ng/ml, 40 hours): 4.6 ± 1.4 × 10^4
